Source: patent publication US20120142657A1, “GABA-STEROID ANTAGONISTS AND THEIR USE FOR THE TREATMENT OF CNS DISORDERS” (UMECRINE AB, priority 2004, published 2012)

Target: T1, rat GABA-A receptor (alpha1, beta2, gamma2L) (Rattus norvegicus, UniProt P18508+P62813+P63138, INS375LLRMFSFK)
T1 construct: expressed in transfected cells; host or cells: Xenopus laevis oocytes (mRNA injection)
Experiment: Chloride flux (current) in recombinant GABA-A receptors expressed in Xenopus laevis oocytes, voltage clamp
Assay type: cell-based
Details: chloride flux induced by GABA alone
From the text: Studies of Chloride Flux in Recombinant GABA-A Receptors (Alpha1, Beta2, Gama2L) Expressed in Xenopus laevis Oocytes Using Voltage Clamp Methods.
The GABA-A receptor used to test the steroids in the present invention was recombinantly expressed in oocytes of Xenopus laevis. The oocytes have a large capacity to express proteins for the surface membrane from mRNA injected into the oocyte. The receptor contains five proteins of three different types and the mRNA for the receptor subtypes alpha1, beta2, gamma2L were expressed in the present test situation. These subtypes of the GABA-A receptor are the most common in the central nervous system. These GABA-A receptors contain two alpha1 proteins, two beta2 and one gamma protein. After 48 hours of incubation the GABA-A receptors are mounted in the membrane and behave in vitro in a similar way as the receptor in situ. Therefore this model system is considered by persons skilled in art to be a good in vitro test system for GABA-A receptor active drugs. The flux of chloride through the chloride channel is a result of GABA activity on the GABA-A receptor and GABA-A receptor modulators like the 3alpha-hydroxy-5alpha/beta-pregnan-steroids can enhance the effectiveness of GABA. The flux of chloride through the receptor is measured as the current induced by the flux with a voltage clamp technique. Dose response curves of the agonists and antagonists can be developed and the current is dependent of the GABA-A receptor activation obtained after the interaction between different dosages of agonists and antagonists. By normalizing the data against a precise current, in the present study 2 μA, the results from different oocytes can be compared and by normalizing the current change against a specific dose, here 10 μM, the different test substances can be compared. The 3alpha-hydroxy-5alpha-pregnan-20-one induced enhancement of GABA mediated chloride flux was set to 1 and obtained by superfusing the GABA-A receptor expressing oocytes with 3 μM GABA+3 μM 3alpha-hydroxy-5alpha-pregnan-20-one in an in vitro bath. The chloride flux was measured as the current induced by the flux of chloride through the GABA-A receptors. The GABA induced chloride flux was set to 1 and obtained by superfusing the GABA-A receptor expressing oocytes in vitro with 30 μM GABA. The inhibiting effect on 3alpha-hydroxy-5alpha-pregnan-20-one induced enhancement of GABA mediated chloride flux by the tested UC-steroids is compared to the inhibiting effect of the same UC-steroids on GABA activation of the GABA-A receptor. In FIG. 1 are the UC-steroids with low GABA antagonism highlighted with an X while the UC-steroids with partial GABA antagonism are highlighted with a black dot ([…]).
On the figure the result are normalized to the control currents activated by 30 µM GABA or 3 μM GABA+3 μM 3alpha-hydroxy-5alpha-pregnan-20-one. The control current in the absence of steroid antagonists is normalized to […]. Each steroid antagonist is tested at 10 μM. […] The black dot ([…]) highlights the steroid antagonist that inhibits both direct GABA-response (30 μM) and 3alpha-hydroxy-5alpha-pregnan-20-one enhanced GABA response. The labels of the data points are marked with product numbers, whereas the numbering of different substances full name is shown in Table 2 and Table 3.
The studies on 3alpha-hydroxy-5alpha-pregnan-20-one inhibition were made in the presence of 3 μM GABA+3 μM 3alpha-hydroxy-5alpha-pregnan-20-one. […] Number of cells recorded n=3-10. […]

T1 sequence (P62813 28-455, stated change not applied): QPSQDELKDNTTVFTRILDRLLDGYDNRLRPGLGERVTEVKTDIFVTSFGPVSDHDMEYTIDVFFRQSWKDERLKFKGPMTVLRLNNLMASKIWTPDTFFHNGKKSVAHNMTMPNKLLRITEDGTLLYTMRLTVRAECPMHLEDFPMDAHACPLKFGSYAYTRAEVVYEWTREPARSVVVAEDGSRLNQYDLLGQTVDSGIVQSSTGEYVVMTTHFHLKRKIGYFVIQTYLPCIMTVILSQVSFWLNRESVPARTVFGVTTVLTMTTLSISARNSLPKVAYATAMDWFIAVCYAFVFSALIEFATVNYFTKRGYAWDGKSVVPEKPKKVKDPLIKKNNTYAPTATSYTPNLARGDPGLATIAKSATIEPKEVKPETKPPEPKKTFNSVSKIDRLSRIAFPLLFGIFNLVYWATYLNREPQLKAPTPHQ
T1 sequence (P63138 26-474, stated change not applied): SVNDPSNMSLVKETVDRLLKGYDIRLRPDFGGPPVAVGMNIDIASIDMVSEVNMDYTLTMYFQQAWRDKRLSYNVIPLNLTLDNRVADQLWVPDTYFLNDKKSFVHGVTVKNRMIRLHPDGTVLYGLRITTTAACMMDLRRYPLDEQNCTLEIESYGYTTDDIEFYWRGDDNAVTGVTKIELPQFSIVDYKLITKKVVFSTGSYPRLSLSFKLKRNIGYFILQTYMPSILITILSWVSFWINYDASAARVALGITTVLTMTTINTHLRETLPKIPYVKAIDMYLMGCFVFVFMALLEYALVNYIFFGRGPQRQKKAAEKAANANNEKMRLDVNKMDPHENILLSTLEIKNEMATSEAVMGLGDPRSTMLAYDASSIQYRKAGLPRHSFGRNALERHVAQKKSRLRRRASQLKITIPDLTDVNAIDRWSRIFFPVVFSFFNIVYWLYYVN
T1 sequence (P18508 with tags, fused parts or gaps INS375LLRMFSFK): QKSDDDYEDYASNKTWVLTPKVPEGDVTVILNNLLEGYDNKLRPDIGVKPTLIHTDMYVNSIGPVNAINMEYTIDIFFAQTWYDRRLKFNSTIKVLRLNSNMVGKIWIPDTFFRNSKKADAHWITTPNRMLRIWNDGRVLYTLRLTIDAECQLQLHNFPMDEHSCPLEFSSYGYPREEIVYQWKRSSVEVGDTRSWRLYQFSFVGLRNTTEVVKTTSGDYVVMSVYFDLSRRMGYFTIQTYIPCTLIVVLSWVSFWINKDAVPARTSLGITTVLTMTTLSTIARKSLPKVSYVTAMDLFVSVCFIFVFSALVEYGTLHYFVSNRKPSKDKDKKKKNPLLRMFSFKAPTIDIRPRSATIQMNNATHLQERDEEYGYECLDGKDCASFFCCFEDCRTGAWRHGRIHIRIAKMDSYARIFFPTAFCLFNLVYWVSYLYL

Row | SMILES | antagonism against GABA itself (in words)
1 | C[C@@H](O)[C@H]1CC[C@H]2[C@@H]3CC[C@@H]4C[C@@H](O)CC[C@]4(C)[C@H]3CC[C@]12C [UC1013, 5beta-PREGNAN-3beta, 20alpha-DIOL] | low antagonism against GABA it self
2 | C[C@]12CC[C@H](O)C[C@H]1CC[C@@H]1[C@@H]2CC[C@]2(C)[C@@H](C(=O)CO)CC[C@@H]12 [UC1015, 5beta-PREGNAN-3beta, 21-DIOL-20-ONE] | partial antagonism against the GABA effect
3 | CC(O)C1CCC2C3CCC4CC(O)CCC4(C)C3CCC12C (stereo not drawn) [UC1011, 5alpha-PREGNAN-3beta, 20beta-DIOL] | low antagonism against GABA it self
4 | CC(=O)[C@H]1CC[C@H]2[C@@H]3CC[C@@H]4C[C@@H](O)CC[C@]4(C)[C@H]3CC[C@]12C [UC1014, 5beta- PREGNAN-3beta-OL-20-ONE] | partial antagonism against the GABA effect
5 | CC(=O)O[C@H]1CC[C@@]2(C)[C@@H](CC[C@@H]3[C@@H]2CC[C@]2(C)[C@@H](C(C)=O)CC[C@@H]32)C1 [UC1012, 5alpha-PREGNAN-3beta-OL-20-ONE ACETATE] | partial antagonism against the GABA effect
